“Also recorded” adds a separate entry of the source. Residues, ends and D or L forms follow the SMILES beside them.

One data set has as its system hepatic gene expression. Put plainly: Hepatic RNA-sequencing of treated mice. In kind it is in vivo. The conditions noted are these: liver. On the procedure:
To obtain a more comprehensive understanding of MTA's potential as an antiobesity molecule, hepatic RNA-sequencing was performed on mice treated with both MTA and B. longum to determine its underlying mechanism for preventing obesity. […] Then, we conducted an in-depth analysis of the regulated genes involved in these biological functions. […] Likewise, overexpression of inhibin beta-A, which is encoded by the Inhba gene, can stimulate mitochondrial energy metabolism and increase energy expenditure.
Bile acids are regarded as important signaling molecules to regulate fatty acid, cholesterol, energy and glucose homeostasis; therefore, enhancing bile acid synthesis may be a strategy to avoid diet-induced obesity. Furthermore, the increased expression of Cyp7a1, which encodes the rate-limiting enzyme in the classic bile acid synthesis pathway, prevents high-fat diet-induced obesity, insulin resistance and atherosclerosis.
In the case of `CSC[C@H]1O[C@@H](n2cnc3c(N)ncnc32)[C@H](O)[C@@H]1O` [MTA, 5′-s-methyl-5′-thioadenosine], the “expression of Cyp7a1” value is recorded as “up-regulated”.

The subject of a further data set is HepG2 cells. Put plainly: Lipid accumulation assay in uric acid-treated HepG2 cells. In kind it is cell-based. The note with it: 120 μg/mL uric acid, 24 hours. On the procedure:
The lipid accumulation assay was done. Briefly, HepG2 cells at 70% confluence were incubated in RPMI 1640 medium containing 120 μg/mL uric acid for 24 hours, which was used to increase the lipid accumulation. After being washed by PBS buffer, the cells were maintained in new RPMI 1640 medium containing the metabolites (5.0, 1.0, 0.5, 0.1, and 0.05 μg/mL, the dried metabolites were redissolved in RPMI 164 medium) and 120 μg/mL uric acid for another 24 hours. Cells maintained in pure RPMI 1640 medium were employed as control.
To further identify bioactive metabolites produced by B. longum, we applied a fractionation approach followed by liquid chromatography-mass spectrometry (LC-MS) coupled with in vitro screening strategy (FIG. 2A). Briefly, the extraction method of B. longum BCRC12585 metabolites (that is, B. longum metabolites, or B. longum crude extract) is the same as in Example 2, and then twenty-five fractions derived from B. longum metabolites were prepared by pre-HPLC column, followed by individually testing the anti-lipid accumulation activity with HepG2 cells. […] To identify candidate metabolites from each active fraction, further analysis was performed by using liquid chromatography coupled with high resolution mass spectrometry (LC-MS/MS). […] Collectively, we integrated in vitro, in vivo, and metabolomics data to identify the bioactive metabolites which could be produced by B. longum.
In the case of `CSCC[C@H](N)C(=O)O` [methionine], the “lipid accumulation in HepG2 cells” value is given as “significantly inhibited; also recorded: exhibited a lipid-lowering effect”.
Same read-out and setting: the entry for `CC(C)[C@H](N)C(=O)O` [valine] is “significantly inhibited”.
Still for that read-out and setting: the entry for `Nc1ncnc2c1ncn2[C@@H]1O[C@H](CO)[C@@H](O)[C@H]1O` [adenosine] is “significantly inhibited”.
Same read-out and setting: the entry for `O=C1CC[C@@H](C(=O)O)N1` [PyroGA, pyroglutamic acid] is “significantly inhibited”.
On to `CC(C)[C@H](NC(=O)[C@@H]1CCC(=O)N1)C(=O)O` [Pyro-glu-val, pyro-glutamyl-valine] (HELM PEPTIDE1{[Glp].V}$$$$V2.0), for which the “lipid accumulation in HepG2 cells” value is “significantly inhibited”.
For the compound `N[C@@H](CCC(=O)O)C(=O)O` [GA, glutamic acid], the “lipid accumulation in HepG2 cells” value is “significantly inhibited”.
`Nc1ncnc2c1ncn2[C@@H]1O[C@H](CO)[C@@H](OP(=O)(O)O)[C@H]1O` [3-AMPP, 3-adenosine monophosphate]: the “lipid accumulation in HepG2 cells” value was “significantly inhibited”.

(Values after US20260144829A1, “SYNBIOTIC COMPOSITION, METABOLITES, AND METHOD OF PREVENTING AND TREATING OBESITY-RELATED DISEASE” (priority 2023, published 2026).)
